Laboratory results taken from patent US20050175535A1 (CV Therapeutics, Inc., priority 2000, published 2005).
Where two headings read alike, the source gives them in different places.

How the values were obtained:
[1] = system: rat isolated perfused heart; experiment: Reversal time of coronary vasodilation in rat isolated perfused hearts; conditions: bolus, rat isolated perfused heart;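 note: each agonist bolused at its minimal concentration giving equal maximal coronary conductance rise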
Procedure: FIG. 10. Reversal of effect of agonist stimulation on CC. […] CC was measured at 8, 16 and 24 minutes after administration (FIG. 10A). […] R and N are the correlation coefficient and number of agonists, respectively.
The relationship between the affinity of agonists for the A2A receptor and the rate of reversal of agonist-mediated responses (coronary vasodilation in heart and cAMP accumulation in PC12 cells) upon termination of drug administration were determined. […] The duration of the coronary vasodilation in isolated rat hearts caused by adenosine, the CVT compounds, and other agonists measured as the time to 50% and 90% (t0.5 and t0.9, respectively) reversal of the increases in coronary conductance after termination of drug administration are summarized in Table 4.

[2] = molecular target: T1, A2A adenosine receptors (PC12 cells) (Rattus norvegicus, UniProt P30543); experiment: Rate of decline of agonist-stimulated cAMP in PC12 cells after A2A antagonist SCH58261; conditions: agonist 1 μM, after addition of SCH58261 (20 μM)
T1 sequence (P30543 whole entry): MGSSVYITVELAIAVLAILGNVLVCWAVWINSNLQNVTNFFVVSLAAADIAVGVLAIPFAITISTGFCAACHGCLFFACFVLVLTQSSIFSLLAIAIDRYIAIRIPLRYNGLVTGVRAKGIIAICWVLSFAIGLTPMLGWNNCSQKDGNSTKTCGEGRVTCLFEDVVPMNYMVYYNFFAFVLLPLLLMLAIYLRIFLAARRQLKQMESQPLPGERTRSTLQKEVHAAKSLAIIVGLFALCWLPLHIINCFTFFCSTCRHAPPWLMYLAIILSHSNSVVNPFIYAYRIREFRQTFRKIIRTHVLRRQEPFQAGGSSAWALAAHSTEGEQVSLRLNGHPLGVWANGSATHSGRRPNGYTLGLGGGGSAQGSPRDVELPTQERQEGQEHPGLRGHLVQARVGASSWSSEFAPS

[3] = molecular target: A2A adenosine receptors (Rattus norvegicus, UniProt P30543); experiment: Competitive radioligand binding, [3H]ZM241385, PC12 cell membranes; conditions: PC12 cells (A2A)
Sequence of A2A adenosine receptors (Rattus norvegicus, UniProt P30543) (P30543 whole entry, the tested form may be a part): as the sequence (P30543 whole entry) above

[4] = system: rat isolated perfused heart; experiment: Coronary conductance / coronary perfusion pressure in isolated perfused rat hearts; conditions: Rattus norvegicus
Procedure: Briefly, rats of either sex weighing 230-260 grams were anesthetized by intraperitoneal injection of a mixture of ketamine (100 mg/ml) and xylazine (20 mg/ml). The chest of each rat was opened and the heart removed, and rinsed in ice-cold modified Krebs-Henseleit (K-H) solution containing NaCl 117.9, KCl 4.5, CaCl2 2.5, MgSO4 1.18, KH2PO4 1.18, pyruvate 2.0 mmo/L. The aorta was cannulated and the heart was perfused at a flow rate of 10 ml/min with modified K-H solution. The K-H solution (pH 7.4) was gassed continuously with 95% O2 and 5% CO2 and warmed to 35±0.5° C. The heart was electrically paced at a fixed cycle length of 240 ms (250 beats/min) using a bipolar electrode placed in the left atrium. The electrical stimuli were generated by a Grass stimulator (Model S48, W. Warwick, R.I.) and delivered through a Stimuli Isolation Unit (Model SIU5, Astro-Med, Inc., NY) as square-wave pulses of 3-msec in duration and with an amplitude of at least twice the threshold intensity.
The identity of the adenosine receptor subtype (A1 or A2A) mediating the coronary vasodilation was determined.
Coronary perfusion pressure (CPP) was measured using a pressure transducer that was connected to the aortic cannula via a T-connector positioned approximately 3 cm above the heart. CPP was monitored throughout an experiment and recorded either on a chart recorder (Gould Recorder 2200S, Valley View, Ohio) or a computerized recording system (PowerLab/4S, ADInstruments Pty Ltd, Australia). Only hearts with CPP ranging from 60 to 85 mmHg (in the absence of drugs) were used in the study. CC conductance (in ml/min/mmHg) was calculated as the ratio between coronary perfusion rate (10 ml/min) and CPP.

[5] = molecular target: A2A adenosine receptors (Sus scrofa, UniProt K9IW67); experiment: Competitive radioligand binding, [3H]ZM241385, pig striatum membranes
Sequence of A2A adenosine receptors (Sus scrofa, UniProt K9IW67) (K9IW67 1-409): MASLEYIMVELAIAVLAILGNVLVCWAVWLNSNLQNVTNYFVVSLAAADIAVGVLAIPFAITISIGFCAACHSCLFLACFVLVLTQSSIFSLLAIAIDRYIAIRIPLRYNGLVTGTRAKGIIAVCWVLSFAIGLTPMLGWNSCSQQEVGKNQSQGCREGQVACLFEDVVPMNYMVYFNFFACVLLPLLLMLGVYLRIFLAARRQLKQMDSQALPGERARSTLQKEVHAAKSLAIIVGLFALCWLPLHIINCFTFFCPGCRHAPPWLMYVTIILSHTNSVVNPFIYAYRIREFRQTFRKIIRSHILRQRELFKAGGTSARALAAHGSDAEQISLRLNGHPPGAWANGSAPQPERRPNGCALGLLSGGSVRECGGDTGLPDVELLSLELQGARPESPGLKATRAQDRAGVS
Procedure: Membranes were also obtained from porcine striatial cells as follows. […] The homogenate was filtered through cotton gauze and centrifuged at 48,000g for 15 minutes at 4° C. […] The final pellet was frozen at −80° C. until used for receptor binding assays.

[6] = molecular target: human A2A adenosine receptors (Homo sapiens, UniProt P29274); experiment: Competitive radioligand binding, [3H]ZM241385, HEK-hA2AAdoR membranes; conditions: HEK-hA2AAdoR
Sequence of human A2A adenosine receptors (P29274 whole entry): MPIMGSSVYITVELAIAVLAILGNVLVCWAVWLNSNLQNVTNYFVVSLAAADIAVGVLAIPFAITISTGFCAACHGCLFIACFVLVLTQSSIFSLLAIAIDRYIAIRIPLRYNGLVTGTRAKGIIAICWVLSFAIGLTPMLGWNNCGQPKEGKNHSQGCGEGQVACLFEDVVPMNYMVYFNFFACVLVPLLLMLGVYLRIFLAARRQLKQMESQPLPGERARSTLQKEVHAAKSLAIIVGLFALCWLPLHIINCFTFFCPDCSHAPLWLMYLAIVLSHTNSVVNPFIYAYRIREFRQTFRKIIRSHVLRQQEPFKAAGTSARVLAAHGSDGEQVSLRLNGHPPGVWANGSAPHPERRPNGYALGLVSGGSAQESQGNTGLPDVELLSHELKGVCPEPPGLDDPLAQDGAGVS
Procedure: Each point represents the mean±SEM of triplicates pooled from at least three experiments.
ZM241385 was purchased from Tocris Cookson Ltd (Langford, Bristol, UK).
Competitive radiolabeling binding assays were performed to determine the binding affinities of the compounds of the invention for the adenosine receptor subtypes, A1, A2A, A2B and A3. Briefly, membrane suspensions, obtained from cells expressing either adenosine receptor subtypes A1, A2A, A2B or A3were incubated for 2 hours at room temperature in 50 mmol/L Tris-HCl buffer (pH 7.4) containing ADA (1U/mL). […] At the end of the incubation, free radioligand was separated from membrane-bound radioligand by filtration through Whatman GF/C glass fiber filters using a Brandel tissue harvester (Gaithersburg, Md.). Triplicate determinations were performed for each concentration of unlabelled compound.

[7] = molecular target: T1, A2A adenosine receptors (PC12 cells); experiment: cAMP accumulation in PC12 cells
Procedure: Effects of adenosine receptor agonists on cAMP content in intact PC12 cells. […] Cyclic AMP levels were determined as described under “Methods”. Values represent mean±SEM of results of triplicate samples from three experiments. […] Values represent mean±SEM of triplicate determinants from one representative experiment.
Briefly, PC12 cells were rinsed three times with Hanks' balanced saline solution (HBSS), detached using a cell lifter, and pelleted by centrifugation at 500 g for 5 minutes. Aliquots of the cell suspension (0.1 to 0.2 mg protein) were placed in microfuge tubes with 250 μL of HBSS containing rolipram (50 μmol/L) to inhibit phosphodiesterases that degrade cAMP_and warmed to 37° C. Appropriate drugs were added to the cell suspensions, and incubations were allowed to continue for 10 minutes. Tubes were placed in a boiling water bath for 5 minutes to terminate the incubation. The samples were then cooled to room temperature, diluted by the addition of 1 mL of 10 mmol/L Tris-HCl buffer at pH 7.4, and then centrifuged for 2 minutes at 13000 g.
The samples were then incubated at 4° C. for 16 hours. At the end of the incubation, 70 μL of a 50% (wt/vol) hydroxyapatite suspension was added to each tube. The suspensions were gently agitated and then incubated for 10 minutes at 4° C. Antibody-bound radioactivity adsorbed to hydroxyapatite was collected onto glass fiber filters by vacuum filtration using a Brandel cell harvester. Radioactivity retained by the filter was counted in a gamma counter. […] The amount of cAMP present in samples was calculated based on a standard curve using known amounts of cAMP.

[8] = molecular target: T2, human A1 adenosine receptors (Homo sapiens, UniProt P30542); experiment: Competitive radioligand binding, [3H]CPX, CHO-hA1AdoR membranes; conditions: [3H]CPX
T2 construct: expressed in transfected cells
T2 sequence (P30542 1-326): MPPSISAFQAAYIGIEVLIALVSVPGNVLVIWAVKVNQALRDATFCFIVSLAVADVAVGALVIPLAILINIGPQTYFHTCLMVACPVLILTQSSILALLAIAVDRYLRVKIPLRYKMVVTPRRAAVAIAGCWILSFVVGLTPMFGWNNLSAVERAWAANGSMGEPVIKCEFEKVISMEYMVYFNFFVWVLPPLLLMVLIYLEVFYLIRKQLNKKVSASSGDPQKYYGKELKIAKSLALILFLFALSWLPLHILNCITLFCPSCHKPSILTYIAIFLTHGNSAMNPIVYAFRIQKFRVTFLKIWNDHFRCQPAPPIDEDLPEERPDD
Procedure: The cell suspensions were homogenized and centrifuged at 48,000g for 15 minutes. The pellets were washed three times by re-suspension in ice-cold Tris-HCl buffer and centrifugation. The final pellet was re-suspended in Tris-HCl, aliquoted and frozen at −80° C. until used for receptor binding assays.

[9] = Coronary blood flow and reversal time, intracoronary infusion in open-chest anesthetized pigs; type: in vivo
Procedure: The magnitude of the effect of A2A adenosine receptor agonists on coronary dilation and the duration of the effect was determined in pigs weighing 22-27 kg. […] In addition, animals were used in accordance with the guidelines of the University of Kentucky Institutional Animal Care and Use Protocol.
Anesthesia was maintained with additional sodium pentobarbital (1.5-2 mg/kg, i.v.) every 15-20 minutes. Animals were ventilated via a tracheotomy tube using a mixture of room air and 100% O2. Tidal volume, respiratory rate and fraction of O2 in inspired air were adjusted to maintain arterial blood gas (ABG) and pH values. […] Lactate Ringers solution was administered via an ear or femoral vein as an initial bolus of 300-400 ml followed by a continuous infusion at a rate of 5-7 ml/kg/hr. A catheter was inserted into the femoral artery to monitor arterial blood pressure.
The heart was exposed through a median sternotomy and suspended in a pericardial cradle. Left ventricular pressure (LVP) was measured with a 5F high fidelity pressure sensitive tip transducer (Millar Instruments, Houston, Tex.) placed in the left ventricular cavity via an apical incision and secured with a purse string suture. A segment of the left anterior descending coronary artery (LAD), proximal to the origin of the first diagonal branch, was dissected free of surrounding tissue. A transit time perivascular flow probe (Transonic Systems Inc., Ithaca, N.Y.) was placed around this segment to measure CBF. Proximal to the flow probe, a 24-gauge modified angiocatheter was inserted for intracoronary infusions. […] The A2A adenosine receptors agonists were administered intracoronary.
Relationship between affinity of various agonists for A2A adenosine receptor and the reversal time of their effect to increase coronary conductance was determined in pigs. Each experiment was preceded by a 30-minute stabilization period following the completion of all instrumentation of the animal. Baseline hemodynamic data were then recorded and an intracoronary infusion of an A2A Adenosine receptors agonist was initiated. Each infusion was maintained for 4-5 minutes to allow LAD CBF to reach a steady-state, after which the infusion was terminated. The times to recovery of CBF by 50% (t0.5) and 90% (t0.9) of the difference from peak effect to baseline CBF were recorded. Ten to 15 minutes after CBF returned to pre-drug values a second infusion with a different agonist was started. […] Hemodynamic measurements were made prior to and following the initiation of the phenylephrine infusion. The phenylephrine infusion rate was adjusted during and following the infusions of the adenosine receptor agonists to maintain arterial blood pressure within 5 mmHg of pre-infusion values. The effect of a maximum of three different agonists was determined in each experiment.

[10] = read-out: EC50, Coronary Conductance (Rat Isolated Heart)
[11] = read-out: pEC50 ± SEM, Coronary Conductance (Rat Isolated Heart) (converted)
[12] = [3H]ZM241385, Gpp(NH)p present, read-out: Ki, Pig Strialum (A2A)
[13] = read-out: pKi ± SEM, CHO-hA1AdoR (converted)

Row | EC50 [4, 10] [nM] | EC50 [4, 11] [nM] | Ki [5, 12] [nM] | Ki ([8]; read-out: Ki, CHO-hA1AdoR) [nM] | Ki [8, 13] [nM] | Structure (SMILES) | t0.5, time to 50% reversal of the increase in coronary conductance [1] [min] | t0.9, time to 90% reversal of the increase in coronary conductance [1] [min] | Ki ([3]; Ki) [nM] | further results
1 | 0.68 | 0.676 | 14.4 | 866 | 851 | Nc1nc(C#CCOc2ccccc2)nc2c1ncn2C1O[C@@H](CO)[C@H](O)[C@@H]1O (stereo partly drawn) [CVT-2995] | 17.5 ± 1.2 | 23.2 ± 2.1 | – | t0.5, rate of decline of cAMP accumulated [2]: 3.9 ± 0.6 min; Ki ([3]; Ki, [3H]ZM241385): 53 nM; Ki ([5]; [3H]ZM241385, Gpp(NH)p present, read-out: pKi ± SEM, Pig Strialum (A2A) (converted)): 13.8 nM; Ki ([6]; Ki, [3H]ZM241385): 305 nM; Ki ([6]; pKi ± SEM, [3H]ZM241385): 302 nM; EC50 ([7]; EC50, cAMP Accumulation (PC12 cells)): 6.6 nM; EC50 ([7]; pEC50 ± SEM, cAMP Accumulation (PC12 cells)): 1.51 nM
2 | 66.5 | 66.1 | 1590 | 6350 | 6030 | Nc1nc(-c2cnn(Cc3ccccc3)c2)nc2c1ncn2C1O[C@@H](CO)[C@H](O)[C@@H]1O (stereo partly drawn) [CVT-3032] | 4.1 ± 0.3 | 9.8 ± 1.4 | 5520 | CBF (fold-increase) ([9]; 30 ug/kg/min intracoronary): 3.78 ± 0.70 fold; t0.5 reversal of increase in coronary blood flow ([9]; 30 ug/kg/min intracoronary): 2.3 ± 0.6 min; t0.9 reversal of increase in coronary blood flow ([9]; 30 ug/kg/min intracoronary): 9.6 ± 1.0 min; Ki ([6]; Ki): 13700 nM; Ki ([6]; pKi ± SEM): 13500 nM; EC50 [7]: 613 nM; agonist behaviour in PC12 cells [7]: partial A2A agonists; Emax ([7]; PC-12, read-out: maximal response of cAMP accumulation, % of that induced by CGS21680): 65%

Row | Structure (SMILES) | EC50 [4, 10] [nM] | EC50 [4, 11] [nM] | Ki [5, 12] [nM] | Ki ([8]; read-out: Ki, CHO-hA1AdoR) [nM] | Ki [8, 13] [nM] | t0.5, time to 50% reversal of the increase in coronary conductance [1] [min] | t0.9, time to 90% reversal of the increase in coronary conductance [1] [min] | Ki ([3]; Ki) [nM] | further results
3 | Nc1nc(N/N=C/C2CCCCC2)nc2c1ncn2[C@@H]1O[C@H](CO)[C@@H](O)[C@H]1O [WRC0470, 2-cyclohexylmethylidenehydrazinoadenosine, reference compound] | 0.62 | 0.646 | – | 7280 | 6920 | – | – | 18 | t0.5 reversal of increase in coronary blood flow ([9]; 1 ug/kg/min intracoronary): 9.5 ± 0.8 min; t0.9 reversal of increase in coronary blood flow ([9]; 1 ug/kg/min intracoronary): 22.5 ± 1.6 min; Ki ([3]; pKi ± SEM): 17 nM; Ki [5]: 20.7 nM
